Data reported in PubChem BioAssay (NCI).
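How tested: cells in 96-well plates exposed to compound for 48 hours at five concentrations. TGI is the concentration that stops growth completely.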

Tested on: ACHN renal
Experiment: inhibition of tumour cell growth, NCI panel, 48 h

Compound	TGI [µM]
O=CN(O)CC(=O)O	> 100
COc1ccc(CN2C(=O)C(=O)N(C)C2=O)c2ccccc12	> 10
OCC1OC(O[C@H]2CN3[C@H](O)[C@@H](O)[C@H](O)[C@H]3C2O)C(O)C(O)C1O (stereo not given in full)	> 100
CC1OC(n2cc(F)c(=O)[nH]c2=O)C(O[Si](C)(C)C(C)(C)C)C1O[Si](C)(C)C(C)(C)C (stereo not given)	26.9
O=S1(=O)c2ccccc2NC(=S)N1c1ccccc1	> 100
COC(=O)C(CCSC)NC(=O)CSc1nnc(COc2ccc(Cl)cc2)n1-c1ccccc1 (stereo not given)	32.1
Cc1ccc(-n2cc(-c3ccc(Cl)cc3)c3c2N=CN2NC(c4ccco4)=NC32)cc1 (stereo not given)	24.5
COn1cc(CO)c2ccccc21	> 100
COc1cc2nc(-c3c(F)cccc3F)n(Cc3c(F)cccc3F)c2cc1Cc1c(F)cccc1F	> 100
O=C(/C=C1\C[C@H]2C=Nc3ccccc3C(=O)N2C1)NCCCCCNC(=O)/C=C1\C[C@H]2C=Nc3ccccc3C(=O)N2C1	3.88
CC[P+](C#Cc1ccccc1)(c1ccccc1)c1ccccc1	13
Cc1ccc(C(=O)c2[nH]c(Nc3cc(C)ccn3)c(C(=S)Nc3ccccc3)c2N)cc1	> 100
CC(C)Cc1c(C#N)c(C#N)c(N)n1Cc1ccccc1	> 100
CC1=NC(C)(C)N(O)C1(C)C	> 100
Clc1cccc(C2ON=C(c3ccccc3)N2C23CC4CC(CC(C4)C2)C3)c1Cl (stereo not given)	> 10
CNc1ccc2c(c1)Cc1ccccc1-2	> 100
CCN(CC(=O)O)CC(=O)O	> 100
O=c1cc(-c2ccccc2F)[nH]c2cc3c(cc12)OCO3	> 100
CC(C)(C)c1ccc2c(c1)OCc1n[nH]c(n1)COc1cc(C(C)(C)C)ccc1OCCOCCO2	14.8
COC1OC2COC(C)(C)OC2C2OC(C)(C)OC12 (stereo not given)	> 100
O=C(NCCCNCCCCNCCCNC(=O)C(F)(F)F)C(F)(F)F	> 100
O=C(O)c1cc2ccccc2c(S(=O)(=O)O)c1O	> 100
COC(=O)c1sc2ncc3c(c2c1N)CC(C)CC3 (stereo not given)	> 100
Cc1cccc(NC(Nc2cccc(C)c2)=C(C(Cl)=C(Cl)Cl)[N+](=O)[O-])c1	43.1
COC(=O)C1=C(C(=O)OC)C2(C)CCC(=O)C1O2 (stereo not given)	> 10

Tested on: CCRF-CEM leukemia
Experiment: inhibition of tumour cell growth, NCI panel, 48 h

Compound	TGI [µM]
O=CN(O)CC(=O)O	> 100
COc1ccc(CN2C(=O)C(=O)N(C)C2=O)c2ccccc12	> 10
OCC1OC(O[C@H]2CN3[C@H](O)[C@@H](O)[C@H](O)[C@H]3C2O)C(O)C(O)C1O (stereo not given in full)	> 100
CC1OC(n2cc(F)c(=O)[nH]c2=O)C(O[Si](C)(C)C(C)(C)C)C1O[Si](C)(C)C(C)(C)C (stereo not given)	> 100
O=S1(=O)c2ccccc2NC(=S)N1c1ccccc1	> 100
COC(=O)C(CCSC)NC(=O)CSc1nnc(COc2ccc(Cl)cc2)n1-c1ccccc1 (stereo not given)	> 66.1
Cc1ccc(-n2cc(-c3ccc(Cl)cc3)c3c2N=CN2NC(c4ccco4)=NC32)cc1 (stereo not given)	> 100
COn1cc(CO)c2ccccc21	> 100
COc1cc2nc(-c3c(F)cccc3F)n(Cc3c(F)cccc3F)c2cc1Cc1c(F)cccc1F	> 100
O=C(/C=C1\C[C@H]2C=Nc3ccccc3C(=O)N2C1)NCCCCCNC(=O)/C=C1\C[C@H]2C=Nc3ccccc3C(=O)N2C1	12.7
CC[P+](C#Cc1ccccc1)(c1ccccc1)c1ccccc1	1.69
Cc1ccc(C(=O)c2[nH]c(Nc3cc(C)ccn3)c(C(=S)Nc3ccccc3)c2N)cc1	> 100
CC(C)Cc1c(C#N)c(C#N)c(N)n1Cc1ccccc1	> 100
CC1=NC(C)(C)N(O)C1(C)C	> 100
Clc1cccc(C2ON=C(c3ccccc3)N2C23CC4CC(CC(C4)C2)C3)c1Cl (stereo not given)	> 10
CNc1ccc2c(c1)Cc1ccccc1-2	> 100
CCN(CC(=O)O)CC(=O)O	> 100
O=c1cc(-c2ccccc2F)[nH]c2cc3c(cc12)OCO3	> 17.7
CC(C)(C)c1ccc2c(c1)OCc1n[nH]c(n1)COc1cc(C(C)(C)C)ccc1OCCOCCO2	26.8
COC1OC2COC(C)(C)OC2C2OC(C)(C)OC12 (stereo not given)	48.8
O=C(NCCCNCCCCNCCCNC(=O)C(F)(F)F)C(F)(F)F	> 100
O=C(O)c1cc2ccccc2c(S(=O)(=O)O)c1O	> 100
COC(=O)c1sc2ncc3c(c2c1N)CC(C)CC3 (stereo not given)	> 100
Cc1cccc(NC(Nc2cccc(C)c2)=C(C(Cl)=C(Cl)Cl)[N+](=O)[O-])c1	> 100
COC(=O)C1=C(C(=O)OC)C2(C)CCC(=O)C1O2 (stereo not given)	> 10

Tested on: HCC-2998 colon
Experiment: inhibition of tumour cell growth, NCI panel, 48 h

Compound	TGI [µM]
O=CN(O)CC(=O)O	> 100
COc1ccc(CN2C(=O)C(=O)N(C)C2=O)c2ccccc12	> 10
OCC1OC(O[C@H]2CN3[C@H](O)[C@@H](O)[C@H](O)[C@H]3C2O)C(O)C(O)C1O (stereo not given in full)	> 100
CC1OC(n2cc(F)c(=O)[nH]c2=O)C(O[Si](C)(C)C(C)(C)C)C1O[Si](C)(C)C(C)(C)C (stereo not given)	28.2
O=S1(=O)c2ccccc2NC(=S)N1c1ccccc1	98.4
COC(=O)C(CCSC)NC(=O)CSc1nnc(COc2ccc(Cl)cc2)n1-c1ccccc1 (stereo not given)	18.2
Cc1ccc(-n2cc(-c3ccc(Cl)cc3)c3c2N=CN2NC(c4ccco4)=NC32)cc1 (stereo not given)	> 100
COn1cc(CO)c2ccccc21	> 100
COc1cc2nc(-c3c(F)cccc3F)n(Cc3c(F)cccc3F)c2cc1Cc1c(F)cccc1F	> 100
O=C(/C=C1\C[C@H]2C=Nc3ccccc3C(=O)N2C1)NCCCCCNC(=O)/C=C1\C[C@H]2C=Nc3ccccc3C(=O)N2C1	32.7
CC[P+](C#Cc1ccccc1)(c1ccccc1)c1ccccc1	4.46
Cc1ccc(C(=O)c2[nH]c(Nc3cc(C)ccn3)c(C(=S)Nc3ccccc3)c2N)cc1	> 100
CC(C)Cc1c(C#N)c(C#N)c(N)n1Cc1ccccc1	> 100
CC1=NC(C)(C)N(O)C1(C)C	> 100
Clc1cccc(C2ON=C(c3ccccc3)N2C23CC4CC(CC(C4)C2)C3)c1Cl (stereo not given)	> 10
CNc1ccc2c(c1)Cc1ccccc1-2	> 100
CCN(CC(=O)O)CC(=O)O	> 100
O=c1cc(-c2ccccc2F)[nH]c2cc3c(cc12)OCO3	0.399
CC(C)(C)c1ccc2c(c1)OCc1n[nH]c(n1)COc1cc(C(C)(C)C)ccc1OCCOCCO2	13.9
COC1OC2COC(C)(C)OC2C2OC(C)(C)OC12 (stereo not given)	> 100
O=C(NCCCNCCCCNCCCNC(=O)C(F)(F)F)C(F)(F)F	> 100
O=C(O)c1cc2ccccc2c(S(=O)(=O)O)c1O	> 100
COC(=O)c1sc2ncc3c(c2c1N)CC(C)CC3 (stereo not given)	> 100
Cc1cccc(NC(Nc2cccc(C)c2)=C(C(Cl)=C(Cl)Cl)[N+](=O)[O-])c1	> 57.8
COC(=O)C1=C(C(=O)OC)C2(C)CCC(=O)C1O2 (stereo not given)	> 10

Tested on: MALME-3M melanoma
Experiment: inhibition of tumour cell growth, NCI panel, 48 h

Compound	TGI [µM]
O=CN(O)CC(=O)O	> 100
COc1ccc(CN2C(=O)C(=O)N(C)C2=O)c2ccccc12	> 10
OCC1OC(O[C@H]2CN3[C@H](O)[C@@H](O)[C@H](O)[C@H]3C2O)C(O)C(O)C1O (stereo not given in full)	> 100
CC1OC(n2cc(F)c(=O)[nH]c2=O)C(O[Si](C)(C)C(C)(C)C)C1O[Si](C)(C)C(C)(C)C (stereo not given)	28.5
O=S1(=O)c2ccccc2NC(=S)N1c1ccccc1	> 100
COC(=O)C(CCSC)NC(=O)CSc1nnc(COc2ccc(Cl)cc2)n1-c1ccccc1 (stereo not given)	37.1
Cc1ccc(-n2cc(-c3ccc(Cl)cc3)c3c2N=CN2NC(c4ccco4)=NC32)cc1 (stereo not given)	> 100
COn1cc(CO)c2ccccc21	> 100
COc1cc2nc(-c3c(F)cccc3F)n(Cc3c(F)cccc3F)c2cc1Cc1c(F)cccc1F	> 100
O=C(/C=C1\C[C@H]2C=Nc3ccccc3C(=O)N2C1)NCCCCCNC(=O)/C=C1\C[C@H]2C=Nc3ccccc3C(=O)N2C1	7.09
CC[P+](C#Cc1ccccc1)(c1ccccc1)c1ccccc1	4.19
Cc1ccc(C(=O)c2[nH]c(Nc3cc(C)ccn3)c(C(=S)Nc3ccccc3)c2N)cc1	> 100
CC(C)Cc1c(C#N)c(C#N)c(N)n1Cc1ccccc1	> 100
CC1=NC(C)(C)N(O)C1(C)C	> 100
Clc1cccc(C2ON=C(c3ccccc3)N2C23CC4CC(CC(C4)C2)C3)c1Cl (stereo not given)	> 10
CNc1ccc2c(c1)Cc1ccccc1-2	> 100
CCN(CC(=O)O)CC(=O)O	> 100
O=c1cc(-c2ccccc2F)[nH]c2cc3c(cc12)OCO3	> 47.3
CC(C)(C)c1ccc2c(c1)OCc1n[nH]c(n1)COc1cc(C(C)(C)C)ccc1OCCOCCO2	7.62
COC1OC2COC(C)(C)OC2C2OC(C)(C)OC12 (stereo not given)	> 100
O=C(NCCCNCCCCNCCCNC(=O)C(F)(F)F)C(F)(F)F	> 100
O=C(O)c1cc2ccccc2c(S(=O)(=O)O)c1O	> 100
COC(=O)c1sc2ncc3c(c2c1N)CC(C)CC3 (stereo not given)	> 100
Cc1cccc(NC(Nc2cccc(C)c2)=C(C(Cl)=C(Cl)Cl)[N+](=O)[O-])c1	29
COC(=O)C1=C(C(=O)OC)C2(C)CCC(=O)C1O2 (stereo not given)	> 10

Tested on: MCF7 breast
Experiment: inhibition of tumour cell growth, NCI panel, 48 h

Compound	TGI [µM]
O=CN(O)CC(=O)O	> 100
COc1ccc(CN2C(=O)C(=O)N(C)C2=O)c2ccccc12	> 10
OCC1OC(O[C@H]2CN3[C@H](O)[C@@H](O)[C@H](O)[C@H]3C2O)C(O)C(O)C1O (stereo not given in full)	> 100
CC1OC(n2cc(F)c(=O)[nH]c2=O)C(O[Si](C)(C)C(C)(C)C)C1O[Si](C)(C)C(C)(C)C (stereo not given)	35.7
O=S1(=O)c2ccccc2NC(=S)N1c1ccccc1	> 100
COC(=O)C(CCSC)NC(=O)CSc1nnc(COc2ccc(Cl)cc2)n1-c1ccccc1 (stereo not given)	41.8
Cc1ccc(-n2cc(-c3ccc(Cl)cc3)c3c2N=CN2NC(c4ccco4)=NC32)cc1 (stereo not given)	> 100
COn1cc(CO)c2ccccc21	> 100
COc1cc2nc(-c3c(F)cccc3F)n(Cc3c(F)cccc3F)c2cc1Cc1c(F)cccc1F	> 63.9
O=C(/C=C1\C[C@H]2C=Nc3ccccc3C(=O)N2C1)NCCCCCNC(=O)/C=C1\C[C@H]2C=Nc3ccccc3C(=O)N2C1	33.6
CC[P+](C#Cc1ccccc1)(c1ccccc1)c1ccccc1	10.8
Cc1ccc(C(=O)c2[nH]c(Nc3cc(C)ccn3)c(C(=S)Nc3ccccc3)c2N)cc1	> 100
CC(C)Cc1c(C#N)c(C#N)c(N)n1Cc1ccccc1	> 100
CC1=NC(C)(C)N(O)C1(C)C	> 100
Clc1cccc(C2ON=C(c3ccccc3)N2C23CC4CC(CC(C4)C2)C3)c1Cl (stereo not given)	> 10
CNc1ccc2c(c1)Cc1ccccc1-2	> 100
CCN(CC(=O)O)CC(=O)O	> 100
O=c1cc(-c2ccccc2F)[nH]c2cc3c(cc12)OCO3	> 50.9
CC(C)(C)c1ccc2c(c1)OCc1n[nH]c(n1)COc1cc(C(C)(C)C)ccc1OCCOCCO2	12.8
COC1OC2COC(C)(C)OC2C2OC(C)(C)OC12 (stereo not given)	> 100
O=C(NCCCNCCCCNCCCNC(=O)C(F)(F)F)C(F)(F)F	> 100
O=C(O)c1cc2ccccc2c(S(=O)(=O)O)c1O	> 100
COC(=O)c1sc2ncc3c(c2c1N)CC(C)CC3 (stereo not given)	> 100
Cc1cccc(NC(Nc2cccc(C)c2)=C(C(Cl)=C(Cl)Cl)[N+](=O)[O-])c1	> 100
COC(=O)C1=C(C(=O)OC)C2(C)CCC(=O)C1O2 (stereo not given)	> 10
